Reference: publication PMC5218480 (PLoS ONE, 2017)

System: MV-4-11 cells
Experiment: Gene expression microarray analysis (Affymetrix PrimeView) and GSEA
Type: cell-based, human
Parameters: RFU PODN (11730768_x_at) / Fold change /veh PODN (11730768_x_at) / RFU LINC00158 (11744669_a_at) / Fold change /veh LINC00158 (11744669_a_at) / RFU DUSP10 (11751237_a_at) / Fold change /veh DUSP10 (11751237_a_at) / RFU ID3 (11757404_x_at) / Fold change /veh ID3 (11757404_x_at) / RFU PLEKHG5 (11737974_s_at) / Fold change /veh PLEKHG5 (11737974_s_at) / RFU LRRC4B (11730491_at) / Fold change /veh LRRC4B (11730491_at) / RFU GIMAP4 (11747438_a_at) / Fold change /veh GIMAP4 (11747438_a_at) / RFU KRT8 (11758183_x_at) / Fold change /veh KRT8 (11758183_x_at) / RFU CNN1 (11734310_a_at) / Fold change /veh CNN1 (11734310_a_at) / RFU VPS37D (11726825_at) / Fold change /veh VPS37D (11726825_at) / RFU C10orf10 (11716522_x_at) / Fold change /veh C10orf10 (11716522_x_at) / RFU KIR2DL2 /// KIR2DL4 /// KIR2DL5A /// KIR2DL5B /// KIR2DS1 /// KIR2DS2 /// KIR2DS3 /// KIR2DS4 /// KIR3DL3 /// KIR3DL3 /// KIR3DS1 (11738374_at) / Fold change /veh KIR2DL2 /// KIR2DL4 /// KIR2DL5A /// KIR2DL5B /// KIR2DS1 /// KIR2DS2 /// KIR2DS3 /// KIR2DS4 /// KIR3DL3 /// KIR3DL3 /// KIR3DS1 (11738374_at) / RFU C1QL1 (11718748_at) / Fold change /veh C1QL1 (11718748_at) / RFU TMPRSS4 (11747572_a_at) / Fold change /veh TMPRSS4 (11747572_a_at) / RFU HAMP (11756126_x_at) / Fold change /veh HAMP (11756126_x_at) / RFU RNFT2 (11725882_a_at) / Fold change /veh RNFT2 (11725882_a_at) / RFU NR4A2 (11747474_a_at) / Fold change /veh NR4A2 (11747474_a_at) / RFU ABCC12 (11746883_a_at) / Fold change /veh ABCC12 (11746883_a_at) / RFU TMEM136 (11760407_x_at) / Fold change /veh TMEM136 (11760407_x_at) / RFU CLDN22 /// WWC2 (11732394_at) / Fold change /veh CLDN22 /// WWC2 (11732394_at) / RFU HLA-DPB1 (11760878_x_at) / Fold change /veh HLA-DPB1 (11760878_x_at) / RFU SPINT1 (11716480_a_at) / Fold change /veh SPINT1 (11716480_a_at) / RFU GAP43 (11754022_s_at) / Fold change /veh GAP43 (11754022_s_at) / RFU A4GNT (11735810_at) / Fold change /veh A4GNT (11735810_at) / RFU PRB3 (11715151_x_at) / Fold change /veh PRB3 (11715151_x_at) / RFU TUBB4B (11761932_at) / Fold change /veh TUBB4B (11761932_at) / RFU CAPN14 (11732068_a_at) / Fold change /veh CAPN14 (11732068_a_at) / RFU TMCC2 (11721928_a_at) / Fold change /veh TMCC2 (11721928_a_at) / RFU IRGQ (11745062_a_at) / Fold change /veh IRGQ (11745062_a_at) / RFU FAM174B (11720279_a_at) / Fold change /veh FAM174B (11720279_a_at) / RFU TMPRSS4 (11748680_a_at) / Fold change /veh TMPRSS4 (11748680_a_at) / RFU FAM212B (11763350_a_at) / Fold change /veh FAM212B (11763350_a_at) / RFU PLEKHG5 (11743358_a_at) / Fold change /veh PLEKHG5 (11743358_a_at) / RFU ZSCAN30 (11745921_a_at) / Fold change /veh ZSCAN30 (11745921_a_at) / RFU CMKLR1 (11741424_a_at) / Fold change /veh CMKLR1 (11741424_a_at) / RFU LOC101060620 /// MAPK8IP1 (11723275_at) / Fold change /veh LOC101060620 /// MAPK8IP1 (11723275_at) / RFU SPTSSB (11747773_x_at) / Fold change /veh SPTSSB (11747773_x_at) / RFU PRSS12 (11739890_at) / Fold change /veh PRSS12 (11739890_at) / RFU BIN1 (11741810_x_at) / Fold change /veh BIN1 (11741810_x_at) / RFU WNT11 (11732464_a_at) / Fold change /veh WNT11 (11732464_a_at) / RFU C10orf10 (11716521_a_at) / Fold change /veh C10orf10 (11716521_a_at) / RFU C5orf56 (11738089_at) / Fold change /veh C5orf56 (11738089_at) / RFU CYB561 (11721691_x_at) / Fold change /veh CYB561 (11721691_x_at) / RFU ANKRD19P (11752326_a_at) / Fold change /veh ANKRD19P (11752326_a_at) / RFU OR2T12 /// OR2T33 /// OR2T8 (11738714_s_at) / Fold change /veh OR2T12 /// OR2T33 /// OR2T8 (11738714_s_at) / RFU VCAN (11748164_a_at) / Fold change /veh VCAN (11748164_a_at) / RFU JSRP1 (11732532_at) / Fold change /veh JSRP1 (11732532_at) / RFU KRTAP10-11 (11738290_x_at) / Fold change /veh KRTAP10-11 (11738290_x_at) / RFU MYO3A (11730013_a_at) / Fold change /veh MYO3A (11730013_a_at) / RFU EBF3 (11725865_a_at) / Fold change /veh EBF3 (11725865_a_at) / RFU CAMK2N1 (11719241_x_at) / Fold change /veh CAMK2N1 (11719241_x_at) / RFU C5orf56 (11738088_a_at) / Fold change /veh C5orf56 (11738088_a_at) / RFU OLFML3 (11715873_a_at) / Fold change /veh OLFML3 (11715873_a_at) / RFU LOC100653217 /// NTM (11731650_a_at) / Fold change /veh LOC100653217 /// NTM (11731650_a_at) / RFU MAPK11 (11762145_a_at) / Fold change /veh MAPK11 (11762145_a_at) / RFU FIZ1 (11724087_x_at) / Fold change /veh FIZ1 (11724087_x_at) / RFU OASL (11726364_x_at) / Fold change /veh OASL (11726364_x_at) / RFU SOX15 (11748057_x_at) / Fold change /veh SOX15 (11748057_x_at) / RFU CD79A (11719716_a_at) / Fold change /veh CD79A (11719716_a_at) / RFU HIST1H1D (11736915_at) / Fold change /veh HIST1H1D (11736915_at) / RFU CASKIN2 (11723855_a_at) / Fold change /veh CASKIN2 (11723855_a_at) / RFU LOC730098 (11760151_x_at) / Fold change /veh LOC730098 (11760151_x_at) / RFU OR4N2 (11742367_at) / Fold change /veh OR4N2 (11742367_at) / RFU PRRT2 (11749266_a_at) / Fold change /veh PRRT2 (11749266_a_at) / RFU SNX32 (11753110_a_at) / Fold change /veh SNX32 (11753110_a_at) / RFU CDHR5 (11726645_a_at) / Fold change /veh CDHR5 (11726645_a_at) / RFU RCAN1 (11760418_a_at) / Fold change /veh RCAN1 (11760418_a_at) / RFU FAM167A (11723789_a_at) / Fold change /veh FAM167A (11723789_a_at) / RFU FAM26E (11764081_at) / Fold change /veh FAM26E (11764081_at) / RFU ISYNA1 (11749810_s_at) / Fold change /veh ISYNA1 (11749810_s_at) / RFU ACY1 (11761880_at) / Fold change /veh ACY1 (11761880_at) / RFU 11764098_at / Fold change /veh 11764098_at / RFU SAMD14 (11745864_x_at) / Fold change /veh SAMD14 (11745864_x_at) / RFU NPB (11741838_a_at) / Fold change /veh NPB (11741838_a_at) / RFU TMPRSS6 (11731388_a_at) / Fold change /veh TMPRSS6 (11731388_a_at) / RFU KRTAP10-2 (11738614_at) / Fold change /veh KRTAP10-2 (11738614_at) / RFU ARHGAP8 /// PRR5-ARHGAP8 (11727945_x_at) / Fold change /veh ARHGAP8 /// PRR5-ARHGAP8 (11727945_x_at) / RFU KRTAP5-7 /// NADSYN1 (11734609_at) / Fold change /veh KRTAP5-7 /// NADSYN1 (11734609_at) / RFU RASL12 (11751679_a_at) / Fold change /veh RASL12 (11751679_a_at) / RFU CDKN2B (11736163_a_at) / Fold change /veh CDKN2B (11736163_a_at) / RFU PRF1 (11729649_at) / Fold change /veh PRF1 (11729649_at) / RFU, ZNF638 /// ZNF638-IT1 / Fold change vs veh, ZNF638 /// ZNF638-IT1 / RFU, PANK3 / Fold change vs veh, PANK3 / RFU, SH3YL1 / Fold change vs veh, SH3YL1 / RFU, ZEB2 / Fold change vs veh, ZEB2 / RFU, NRIP1 / Fold change vs veh, NRIP1 / RFU, PTTG1IP / Fold change vs veh, PTTG1IP / RFU, CAPN2 / Fold change vs veh, CAPN2 / RFU, MED14 / Fold change vs veh, MED14 / RFU, SNORA58 / Fold change vs veh, SNORA58 / RFU, C1orf63 / Fold change vs veh, C1orf63 / RFU, LRRFIP1 / Fold change vs veh, LRRFIP1 / RFU, NDUFAF7 / Fold change vs veh, NDUFAF7 / RFU, SLC12A2 / Fold change vs veh, SLC12A2 / RFU, IBTK / Fold change vs veh, IBTK / RFU, ESF1 / Fold change vs veh, ESF1 / Fold change vs veh, TMEM50B / RFU, TAOK1 / Fold change vs veh, TAOK1 / RFU, ACBD3 / Fold change vs veh, ACBD3 / RFU, TMA16 / Fold change vs veh, TMA16 / RFU, RWDD3 / Fold change vs veh, RWDD3 / RFU, BCAT1 / Fold change vs veh, BCAT1 / RFU, EDEM3 / Fold change vs veh, EDEM3 / RFU, TMEM33 / Fold change vs veh, TMEM33 / RFU, WDR75 / Fold change vs veh, WDR75 / RFU, AHCTF1 / Fold change vs veh, AHCTF1 / RFU, TFRC / Fold change vs veh, TFRC / RFU, ZDHHC17 / Fold change vs veh, ZDHHC17 / RFU, NOM1 / Fold change vs veh, NOM1 / RFU, ARL8B / Fold change vs veh, ARL8B / RFU, ZBTB11 / Fold change vs veh, ZBTB11 / RFU, TAMM41 / Fold change vs veh, TAMM41 / RFU, KIAA1704 /// LOC100996395 / Fold change vs veh, KIAA1704 /// LOC100996395 / RFU, ING1 / Fold change vs veh, ING1 / RFU, TRMT61B / Fold change vs veh, TRMT61B / RFU, FUBP3 / Fold change vs veh, FUBP3 / RFU, TP53 / Fold change vs veh, TP53 / RFU, TNKS2 / Fold change vs veh, TNKS2 / RFU, ZFP14 / Fold change vs veh, ZFP14 / RFU, ACTR2 / Fold change vs veh, ACTR2 / RFU, PPP3R1 / Fold change vs veh, PPP3R1 / RFU, PIK3R1 / Fold change vs veh, PIK3R1 / RFU, HNRNPA1 / Fold change vs veh, HNRNPA1 / RFU, RNF170 / Fold change vs veh, RNF170 / RFU, ZNF28 / Fold change vs veh, ZNF28 / RFU, RNGTT / Fold change vs veh, RNGTT / RFU, OGT / Fold change vs veh, OGT / RFU, BRD1 / Fold change vs veh, BRD1 / RFU, MARS / Fold change vs veh, MARS / RFU, ZNF655 / Fold change vs veh, ZNF655 / RFU, FAHD1 / Fold change vs veh, FAHD1 / RFU, BDP1 / Fold change vs veh, BDP1 / RFU, LRRCC1 / Fold change vs veh, LRRCC1 / RFU, ARID1A / Fold change vs veh, ARID1A / RFU, ZNF146 / Fold change vs veh, ZNF146 / RFU, ZNF330 / Fold change vs veh, ZNF330 / RFU, GPN3 / Fold change vs veh, GPN3 / RFU, C9orf123 / Fold change vs veh, C9orf123 / RFU, N4BP2L2 / Fold change vs veh, N4BP2L2 / RFU, ARFIP1 / Fold change vs veh, ARFIP1 / RFU, FAM179B / Fold change vs veh, FAM179B / RFU, BCL10 / Fold change vs veh, BCL10 / RFU, UHRF1BP1L / Fold change vs veh, UHRF1BP1L / RFU, BET1 / Fold change vs veh, BET1 / RFU, CNOT2 / Fold change vs veh, CNOT2 / RFU, ZNF268 / Fold change vs veh, ZNF268 / Fold change vs veh, ZNF507 / RFU, DGCR2 / Fold change vs veh, DGCR2 / RFU, WDSUB1 / Fold change vs veh, WDSUB1 / Fold change vs veh, HSP90B1 /// MIR3652 / RFU, ADSS / Fold change vs veh, ADSS / RFU, GK / Fold change vs veh, GK / RFU, ZNF148 / Fold change vs veh, ZNF148 / RFU, TAF9 / Fold change vs veh, TAF9 / RFU, SLC1A5 / Fold change vs veh, SLC1A5 / RFU, SLMO2 / Fold change vs veh, SLMO2 / RFU, ABCC4 / Fold change vs veh, ABCC4 / RFU, LOC101060439 /// RAP1B / Fold change vs veh, LOC101060439 /// RAP1B / RFU, RFX7 / Fold change vs veh, RFX7 / RFU, GTPBP10 / Fold change vs veh, GTPBP10 / RFU, CNEP1R1 / Fold change vs veh, CNEP1R1 / RFU, BIVM-ERCC5 /// ERCC5 / Fold change vs veh, BIVM-ERCC5 /// ERCC5 / RFU, ILF3 / Fold change vs veh, ILF3 / RFU 11762660_at / Fold change /veh 11762660_at / RFU VCAN (11757783_s_at) / Fold change /veh VCAN (11757783_s_at) / RFU DDX43 (11728927_at) / Fold change /veh DDX43 (11728927_at) / RFU KRT8 (11758188_x_at) / Fold change /veh KRT8 (11758188_x_at) / RFU NKD1 (11759106_at) / Fold change /veh NKD1 (11759106_at) / RFU SRD5A1 (11742802_a_at) / Fold change /veh SRD5A1 (11742802_a_at) / RFU TPSAB1 /// TPSB2 (11721975_s_at) / Fold change /veh TPSAB1 /// TPSB2 (11721975_s_at) / RFU GSTM3 (11746129_a_at) / Fold change /veh GSTM3 (11746129_a_at) / RFU IL23R (11737362_x_at) / Fold change /veh IL23R (11737362_x_at) / RFU TMEM51 (11727254_a_at) / Fold change /veh TMEM51 (11727254_a_at) / RFU PIWIL2 (11732686_x_at) / Fold change /veh PIWIL2 (11732686_x_at) / RFU ORM1 (11744905_x_at) / Fold change /veh ORM1 (11744905_x_at) / RFU CCDC152 (11743942_at) / Fold change /veh CCDC152 (11743942_at) / RFU ECM1 (11717891_a_at) / Fold change /veh ECM1 (11717891_a_at) / RFU IL23R (11748794_a_at) / Fold change /veh IL23R (11748794_a_at) / RFU TNFAIP8L3 (11732012_x_at) / Fold change /veh TNFAIP8L3 (11732012_x_at) / RFU MBOAT4 (11741988_at) / Fold change /veh MBOAT4 (11741988_at) / RFU 11764193_at / Fold change /veh 11764193_at / RFU TMEM53 (11763286_at) / Fold change /veh TMEM53 (11763286_at) / RFU MAGEB2 (11727129_at) / Fold change /veh MAGEB2 (11727129_at) / RFU TMEM200A (11744735_a_at) / Fold change /veh TMEM200A (11744735_a_at) / RFU CCDC152 (11751479_a_at) / Fold change /veh CCDC152 (11751479_a_at) / RFU FAM211A (11726209_a_at) / Fold change /veh FAM211A (11726209_a_at) / RFU RGS16 (11746705_a_at) / Fold change /veh RGS16 (11746705_a_at) / RFU VCAN (11755009_s_at) / Fold change /veh VCAN (11755009_s_at) / RFU RHOB (11743442_s_at) / Fold change /veh RHOB (11743442_s_at) / RFU RGS16 (11720943_a_at) / Fold change /veh RGS16 (11720943_a_at) / RFU RGS16 (11720944_at) / Fold change /veh RGS16 (11720944_at) / RFU, VPS4B / Fold change vs veh, VPS4B / RFU, CREB1 / Fold change vs veh, CREB1 / RFU, DNAJC13 / Fold change vs veh, DNAJC13 / RFU, GNAQ / Fold change vs veh, GNAQ / RFU, CDK5R1 / Fold change vs veh, CDK5R1 / RFU, ZRANB3 / Fold change vs veh, ZRANB3 / RFU, CUL4A / Fold change vs veh, CUL4A / RFU, CCNY / Fold change vs veh, CCNY / RFU, UFL1 / Fold change vs veh, UFL1 / RFU, COG3 / Fold change vs veh, COG3 / RFU, DIAPH2 / Fold change vs veh, DIAPH2 / RFU, SKA2 / Fold change vs veh, SKA2 / RFU, AFF3 / Fold change vs veh, AFF3 / RFU, LMF1 / Fold change vs veh, LMF1 / RFU, IPO11 / Fold change vs veh, IPO11 / RFU, DFFB / Fold change vs veh, DFFB / RFU, FOXP1 / Fold change vs veh, FOXP1 / RFU, CARD8 / Fold change vs veh, CARD8 / RFU, STRN3 / Fold change vs veh, STRN3 / RFU, ADK / Fold change vs veh, ADK / RFU, RASSF2 / Fold change vs veh, RASSF2 / RFU, WIPF1 / Fold change vs veh, WIPF1 / RFU, LARP1B / Fold change vs veh, LARP1B / RFU, RASA1 / Fold change vs veh, RASA1 / RFU, RB1 / Fold change vs veh, RB1 / RFU, PPFIA1 / Fold change vs veh, PPFIA1 / RFU, MAT2A / Fold change vs veh, MAT2A / RFU, CCT5 / Fold change vs veh, CCT5 / RFU, WDR92 / Fold change vs veh, WDR92 / RFU, CUX1 / Fold change vs veh, CUX1 / RFU, TTC7A / Fold change vs veh, TTC7A / RFU, TMEM135 / Fold change vs veh, TMEM135 / RFU, DEPTOR / Fold change vs veh, DEPTOR / RFU, CPM / Fold change vs veh, CPM / RFU, DNAJB6 / Fold change vs veh, DNAJB6 / RFU, CACNA2D3 / Fold change vs veh, CACNA2D3 / RFU, DTX4 / Fold change vs veh, DTX4 / RFU, TFCP2 / Fold change vs veh, TFCP2 / RFU, GMCL1 /// GMCL1P1 / Fold change vs veh, GMCL1 /// GMCL1P1 / RFU, AEBP2 / Fold change vs veh, AEBP2 / RFU, SNHG1 /// SNORD22 /// SNORD25 /// SNORD26 /// SNORD27 /// SNORD28 /// SNORD29 /// SNORD31 / Fold change vs veh, SNHG1 /// SNORD22 /// SNORD25 /// SNORD26 /// SNORD27 /// SNORD28 /// SNORD29 /// SNORD31 / Fold change (Aza/veh), C12orf56 (ProbeSet 11735607_a_at) / Fold change (ACY-1035/veh), C12orf56 (ProbeSet 11735607_a_at) / Fold change (Aza/veh), FGFR1OP (ProbeSet 11751329_s_at) / Fold change (ACY-1035/veh), FGFR1OP (ProbeSet 11751329_s_at) / Fold change (Aza/veh), VPS36 (ProbeSet 11739960_a_at) / Fold change (ACY-1035/veh), VPS36 (ProbeSet 11739960_a_at) / RFU SYPL1 (11715823_x_at) / Fold change /veh SYPL1 (11715823_x_at) / RFU IGFBP7 (11715501_s_at) / Fold change /veh IGFBP7 (11715501_s_at) / RFU REEP3 (11722064_at) / Fold change /veh REEP3 (11722064_at) / RFU IGLL1 (11728026_x_at) / Fold change /veh IGLL1 (11728026_x_at): dose or concentration left out as unconfirmed
Details: ProbeSet 11754607_s_at; LIST B

## Nc1ncn([C@@H]2O[C@H](CO)[C@@H](O)[C@H]2O)c(=O)n1 [azacitidine]
  Fold change vs veh, HSP90B1 /// MIR3652: 0.90
